Results from patent publication US6344351B2, “(R)-transaminase from arthrobacter” (Kaneka Corporation, priority 1995, dated 2002).

Experiments:
[1] = system: (R)-form-specific transaminase of Arthrobacter sp. KNK168; assay: Reactivity of purified enzyme to carbonyl compounds, (R)-1-phenylethylamine as amino donor; type: biochemical; settings: for Relative Activity (%) of carbonyl compounds: purified enzyme, 25 mM carbonyl compound, 25 mM (R)-1-phenylethylamine, pH 8.5, 30° C., 1 to 3 hours, pyruvic acid = 100; for reactivity of carbonyl compound: (R)-1-phenylethylamine as amino donor
Experimental: Using the purified enzyme obtained in Example 9, reactivities to various carbonyl compounds using (R)-1-phenylethylamine as an amino donor were evaluated. 50 μl of a solution of the purified enzyme was added to 200 μl of a substrate solution (0.1 M Tris-HCl buffer (pH 8.5), 25 mM (R)-1-phenylethylamine, 0.1 mM pyridoxal phosphate, and 25 mM various carbonyl compounds), and the components were reacted at 30° C. for 1 to 3 hours. The reaction tube was transferred into boiling water to stop the reaction, and, thereafter, the reaction mixture was diluted five-folds with methanol. This diluted solution was analyzed by high-performance liquid chromatography using fine pack C18-5 column and using methanol/water (20:80) as an eluent solution to quantitatively analyze acetophenone formed by the reaction.

[2] = system: Arthrobacter species KNK168 strain; assay: Surfactants and fatty acids as reaction additives; (R)-DMA formation by cells; type: cell-based
Experimental: The cells obtained by culturing the Arthrobacter species KNK168 strain in the R medium were suspended in a reaction mixture containing 2% of 1-(3,4-dimethoxyphenyl)-2-propanone and 4% of (RS)-1-phenylethylamine. The surfactants and fatty acids shown in Table 6 were added thereto, and the mixture was reacted at 30° C. at a pH of 8.5 for 20 hours.

[3] = system: transaminase (intracellular enzyme) of Arthrobacter sp. KNK168; assay: Activity of the transaminase (intracellular enzyme) against typical substrates of ω-aminotransferases; type: biochemical
[4] = system: (R)-form-specific transaminase of Arthrobacter sp. KNK168; assay: Reactivity of purified transaminase of present invention to amino compounds, pyruvic acid as amino acceptor; type: biochemical; set-up: Transaminase of Present Invention (Relative Activity: %), Substrate Specificity: concentration or dose not given beside the values; settings: for Transaminase of Present Invention (Relative Activity: %), Substrate Specificity / Relative Activity (%) of amino compounds: purified enzyme; for Transaminase of Present Invention (Relative Activity: %), Substrate Specificity / reactivity of amino compound: pyruvic acid as amino acceptor; for Relative Activity (%) of amino compounds: 40 mM amino compound in substrate solution, 40 mM pyruvic acid, pH 8.3, 30° C., 1 hour, (R)-1-phenylethylamine = 100
Source text: The differences with the ω-amino acid transaminase derived from Pseudomonas sp. F-1 (Agric. Biol. Chem., 42, 2363-2367 (1978), Agric. Biol. Chem., 43, 1043-1048 (1979), J. Biol. Chem., 258, 2260-2265 (1983)) which have been well studied among the ω-amino acid transaminases, and with the benzylamine transaminase of Okada et al. (Japanese Patent Laid-Open No. Hei 6-178685) are summarized and shown in Table 2. In a case of the transaminase action in the present invention, the data of the purified enzyme are used, and in cases of those by other two enzymes, the data of the purified enzymes which are disclosed in each of the literature publication and patent publication are used. Pyruvic acid is used as an amino acceptor in all cases.
Using the purified enzyme obtained in Example 9, reactivities to various amino compounds when using pyruvic acid as an amino acceptor were evaluated. 150 μl of a solution of the purified enzyme diluted ten-folds was added to 150 μl of a substrate solution (0.1 M potassium phosphate buffer (pH 8.3), 40 mM pyruvic acid, 0.1 mM pyridoxal phosphate, and 40 mM various amino compounds). The components were reacted at 30° C. for 1 hour. The reaction tube was transferred into boiling water to stop the reaction, and, thereafter, a part of the reaction mixture was diluted five-folds. Ten μl of 0.1 M boric acid buffer (pH 8.0) and 20 μl of an ethanol solution of 80 mM of 4-fluoro-7-nitro-2,1,3-benzoxadiazole (NBD-F) were added to 10 μl of the above-mentioned diluted reaction mixture. The components were reacted at 60° C. for 1 minute, and, thereafter, the reaction mixture was ice-cooled, and 460 μl of 5 mM HCl was added thereto. This reaction mixture was analyzed by high-performance liquid chromatography using fine pack C18-5 column and using a 0.1 M potassium phosphate buffer (pH 6.5) and CH3CN (90:10) as an eluent solution to detect formation of alanine-NBD using excitation wavelength of 470 nm and using detection wave of […]. The results thereof are shown in Table 8 in terms of relative activity in the case of using […] as a substrate.

[5] = biological target: T1, ω-amino acid transaminase derived from Pseudomonas sp. F-1 (Pseudomonas putida, UniProt P28269); set-up: concentration or dose not given beside the values; settings: purified enzyme, literature data; pyruvic acid as amino acceptor; cited from earlier work
T1 sequence (P28269 1-449): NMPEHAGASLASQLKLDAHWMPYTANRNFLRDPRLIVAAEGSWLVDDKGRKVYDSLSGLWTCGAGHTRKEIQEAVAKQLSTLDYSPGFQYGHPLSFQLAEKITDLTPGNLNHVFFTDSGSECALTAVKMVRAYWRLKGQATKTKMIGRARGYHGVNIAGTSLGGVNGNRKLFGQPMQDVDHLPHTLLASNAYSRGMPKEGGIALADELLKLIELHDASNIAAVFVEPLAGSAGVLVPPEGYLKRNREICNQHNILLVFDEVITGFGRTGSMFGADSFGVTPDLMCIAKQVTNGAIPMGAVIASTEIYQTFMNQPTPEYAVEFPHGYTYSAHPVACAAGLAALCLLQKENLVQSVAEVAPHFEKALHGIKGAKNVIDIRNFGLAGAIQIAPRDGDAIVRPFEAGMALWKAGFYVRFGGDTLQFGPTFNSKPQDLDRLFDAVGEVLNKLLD

[6] = system: Arthrobacter species KNK168 strain; assay: Amino donor test; (R)-DMA formation by cultured cells; type: cell-based
Experimental: The cultured cells were harvested by centrifugation, and the harvested cells were suspended in a reaction mixture (pH 8.5) containing 1% of 1-(3,4-dimethoxyphenyl)-2-propanone, […] of Triton X-100, and 1% of an amino donor shown in Table 2. The components were reacted at 35° C. for 20 hours.

[7] = additive 0.1%, 2% ketone, 4% (RS)-1-phenylethylamine, 30° C., pH 8.5, 20 hours, no addition 28.1
[8] = amino acceptor 2-ketoglutaric acid, (R)-1-phenylethylamine/pyruvic acid control = 100
[9] = additive 0.5%, otherwise as 0.1%
[10] = amino acceptor pyruvic acid, (R)-1-phenylethylamine control = 100
[11] = 1% amino donor, 1% 1-(3,4-dimethoxyphenyl)-2-propanone, Triton X-100, pH 8.5, 35° C., 20 hours

COc1ccc(CC(C)=O)cc1OC [1-(3,4-Dimethoxyphenyl)-2-propanone]
Relative Activity (%) of carbonyl compounds [1]: 7%

CC(=O)c1ccco1 [2-Acetylfuran]
Relative Activity (%) of carbonyl compounds [1]: 2%

CC(=O)c1cccs1 [2-Acetylthiophene]
Relative Activity (%) of carbonyl compounds [1]: 1%

CCOC(=O)CC(C)=O [Ethyl acetoacetate]
Relative Activity (%) of carbonyl compounds [1]: 4%

CCCCCCCCCCCCCCCC[N+](C)(C)C.[Br-] [Cetyl trimethyl ammonium bromide (CTAB), Cetyl trimethyl ammonium bromide]
(R)-DMA Formed (%), additive [2, 7]: 29.1%

NC(=O)CCC(N)C(=O)O (racemic) [DL-Glutamine]
Relative Activity (%) as amino donor [3, 8]: 0%

CC(N)CC(=O)O (racemic) [DL-3-Aminobutyric acid]
action of the transaminase derived from Arthrobacter on the substrate [4]: does not act
Transaminase of Present Invention (Relative Activity: %), Substrate Specificity [4]: 0%
ω-Amino Acid Transaminase (Relative Activity: %), Substrate Specificity [5]: 96%

O=CC(=O)O [Glyoxylic acid]
Relative Activity (%) of carbonyl compounds [1]: 4%

COc1ccc(CCC(C)=O)cc1 [4-(4-Methoxyphenyl)-2-butanone]
Relative Activity (%) of carbonyl compounds [1]: 7%

Triton X-100
(R)-DMA Formed (%), additive [2, 7]: 31.6%
(R)-DMA Formed (%), additive [2, 9]: 34.0%

CC(=O)c1cccnc1 [3-Acetylpyridine]
Relative Activity (%) of carbonyl compounds [1]: 8%

CC(=O)CCc1ccccc1 [Benzyl acetone]
Relative Activity (%) of carbonyl compounds [1]: 3%

CCCCCCC(C)N (stereo not shown) [1-Methylheptylamine]
Relative Activity (%) of amino compounds [4]: 47%

COCC(C)=O [1-Methoxy-2-propanone]
Relative Activity (%) of carbonyl compounds [1]: 16%

CCCCC/C=C\C/C=C\CCCCCCCC(=O)O [Linoleic Acid]
effect of additive on rate of reaction [2]: rate of reaction was increased
(R)-DMA Formed (%), additive ([2]; additive 2.9%): 45.1%

CC(=O)c1ccncc1 [4-Acetylpyridine]
Relative Activity (%) of carbonyl compounds [1]: 27%

NCCC(N)C(=O)O (stereo not drawn) [α-2,4-Diaminobutyric acid]
Relative Activity (%) as amino donor [3, 10]: 0%

2-Decane
Relative Activity (%) of carbonyl compounds [1]: 3%

O=CCc1ccccc1 [Phenyl acetaldehyde]
Relative Activity (%) of carbonyl compounds [1]: 13%

CC(=O)Oc1cccnc1 [3-Acetoxypyridine]
Relative Activity (%) of carbonyl compounds [1]: 1%

NCCCC(=O)O [4-Aminobutyric acid]
action of the transaminase derived from Arthrobacter on the substrate [4]: does not act
Transaminase of Present Invention (Relative Activity: %), Substrate Specificity [4]: 0%
Relative Activity (%) as amino donor [3, 8]: 0%
ω-Amino Acid Transaminase (Relative Activity: %), Substrate Specificity [5]: 40%

CCCCCC(C)N (stereo not shown) [2-Heptylamine]
Relative Activity (%) of amino compounds [4]: 37%

CCCCCCCCCCCCOS(=O)(=O)[O-].[Na+] [Sodium dodecyl sulfate]
effect of additive on rate of reaction [2]: rate of reaction was increased
(R)-DMA Formed (%), additive [2, 7]: 45.3%
(R)-DMA Formed (%), additive [2, 9]: 42.2%
(R)-DMA Formed (%), additive ([2]; additive 1.0%): 46.3%
(R)-DMA Formed (%), additive ([2]; additive 2.0%): 50.1%
(R)-DMA Formed (%), additive ([2]; additive 3.0%): 51.9%
(R)-DMA Formed (%), additive ([2]; additive 4.0%): 53.1%

CC(=O)c1cnccn1 [2-Acetylpyrazine]
Relative Activity (%) of carbonyl compounds [1]: 17%

O=C1CCCc2ccccc21 [1-Tetralone]
Relative Activity (%) of carbonyl compounds [1]: 1%

CC(N)c1cccc2ccccc12 (racemic) [(RS)-1-Naphthylethylamine]
(R)-DMA Formed (%), amino group donor [6, 11]: 34.2%

CC(=O)c1ccccn1 [2-Acetylpyridine]
Relative Activity (%) of carbonyl compounds [1]: 19%

CC(CN)c1ccccc1 (racemic) [(RS)-1-Amino-2-phenylpropane]
(R)-DMA Formed (%), amino group donor ([6]; pH 8.5): 1.8%

CCC(C)N (stereo not shown) [1-Methylpropylamine]
Relative Activity (%) of amino compounds [4]: 1.2%

CC(=O)C(C)=O [Diacetyl]
Relative Activity (%) of carbonyl compounds [1]: 10%

CCC(=O)Cc1ccccc1 [1-Phenyl-2-butanone]
Relative Activity (%) of carbonyl compounds [1]: 1%

C[C@@H](N)c1ccccc1 [(R)-1-Phenylethylamine]
Relative Activity (%) of amino compounds [4]: 100%
activity of the transferase to amino donor [3]: especially high activity
Relative Activity (%) as amino donor [3, 10]: 100%

CC(N)CCc1ccccc1 (stereo not shown) [3-Aminophenylbutane]
Relative Activity (%) of amino compounds [4]: 84%
reactivity of amino compound [4]: favorable reactivities

NCCS(=O)(=O)O [Taurine]
Relative Activity (%) as amino donor [3, 8]: 0%

N[C@H](CO)c1ccccc1 [(S)-2-Phenylglycinol]
Relative Activity (%) of amino compounds [4]: 180%
reactivity of amino compound [4]: favorable reactivities

CC(N)c1ccccc1 (racemic) [(RS)-1-phenylmethylamine]
(R)-DMA Formed (%), amino group donor [6, 11]: 3.1%

NC(=O)CC(N)C(=O)O (racemic) [DL-Asparagine]
Relative Activity (%) as amino donor [3, 8]: 0%

CC(=O)c1nccs1 [2-Acetylthiazole]
Relative Activity (%) of carbonyl compounds [1]: 10%

CCOC(=O)CC(=O)c1ccccc1 [Ethyl benzoyl acetate]
Relative Activity (%) of carbonyl compounds [1]: 2%

COc1ccc(C[C@@H](C)N)cc1OC [(R)-3,4-Dimethoxyaminopropane]
Relative Activity (%) of amino compounds [4]: 30%

CCC(=O)C(=O)O [2-Ketobutyric acid]
Relative Activity (%) of carbonyl compounds [1]: 7%

CC(=O)COc1ccccc1 [Phenoxy-2-propanone]
reactivity of carbonyl compound [1]: favorable reactivities
Relative Activity (%) of carbonyl compounds [1]: 83%

N[C@H](CO)Cc1ccccc1 [L-Phenylalaninol]
Relative Activity (%) of amino compounds [4]: 0.8%

O=C(O)CC(=O)C(=O)O [Oxalacetic acid]
reactivity of carbonyl compound [1]: favorable reactivities
Relative Activity (%) of carbonyl compounds [1]: 87%

NCCCCC(N)C(=O)O (racemic) [DL-Lysine]
Relative Activity (%) as amino donor [3, 8]: 0%

CCOC(=O)C(C)=O [Ethyl pyruvate]
Relative Activity (%) of carbonyl compounds [1]: 27%

CCCC(C)N (racemic) [(RS)-2-Aminopentane]
function as amino donor [6]: functioned as amino donors

CC(N)CO (racemic) [(RS)-2-Amino-1-propanol]
(R)-DMA Formed (%), amino group donor [6, 11]: 9.6%

CC(=O)C(=O)O [Pyruvic acid]
Relative Activity (%) of carbonyl compounds [1]: 100%

CCCCCCCC/C=C\CCCCCCCC(=O)O [Oleic Acid]
effect of additive on rate of reaction [2]: rate of reaction was increased
(R)-DMA Formed (%), additive ([2]; additive 2.9%): 44.9%
